From patent US9526915B2, “Methods for regulating cell mitosis by inhibiting serine/threonine phosphatase” (priority 2008, dated 2016)
“Also recorded” adds a separate entry of the source.

Key:
U373 cells = experiment: Western blots of U373 cells; assay type: cell-based, human; conditions: U373 (mutant p53), 24 hours
Protocol: (§1) 5×10^6 U87MG cells were inoculated s.c. into each flank of 20 SCID mice. When the xenografts were 0.5+/−0.1 cm (day 0), 5 animals each received i.p. vehicle alone days 1-12 (50% DMSO/H20); compound 102 alone at 1.5 mg/kg days 1-3, 5-7, & 9-11; TMZ alone at 80 mg/kg days 4, 8, 12; or both drugs at the same doses and schedules. If xenografts reached 1800 mm^3, animals were sacrificed. […] B, Survival curve combining the data from the study shown in FIG. 12A, with a second identical study involving a total of 10 animals with two xenografts each. Disease-free survival was defined as no recurrence of either xenografts. […] As in 12A, except that xenografts of SH-SY5Y cells were implanted in one flank only and animals were treated with one additional cycle of drugs, i.e., compound 102 on days 13-15, TMZ, on day 16, and compound 102 plus TMZ on the same schedules. […] E, Western blots of U87 cells in culture 24 hours after exposure to compound 102 at 2.5 uM, TMZ at 25 uM or DOX at 2 uM, and compound 102 plus TMZ or DOX. F, Western blots of U373 cells 24 hours after exposure to compound 102 at 2.5 uM, doxorubicin at 2 uM, and both drugs. G, Western blots of U373 cells 24 hours after exposure to TMZ at 25 uM, okadaic acid at 2 nM, and both drugs.

NB xenografts = experiment: Histologic examination of xenografts 24 hours after single i.p. injection; assay type: in vivo, SCID mice; conditions: compound 102 1.5 mg/kg, TMZ 80 mg/kg
U87MG cells = experiment: Cell cycle distribution of U87MG cells by FACS; assay type: cell-based, human; conditions: 48 hours
Protocol: Cells in unsynchronized logarithmic growth were exposed to vehicle or drug and adherent cells and cells in the media were collected. Harvested cells were fixed with 70% cold ethanol for 20 min at −20 degrees, washed with PBS, and stained with 10 ug/ml of PI and 1 ug/ml RNAse in TBS for 30 minutes and analyzed by FACS. A, Flow cytometry profiles of U87 cells after exposures to DMSO only, compound 102 only, 5 uM; TMZ only, 25 uM; compound 102 with TMZ combination, doxorubicin only, 2.0 uM and compound 102 with doxorubicin combination. B, Flow cytometry profiles of U373 cells. Exposures as in A, and C, Schema of proposed mechanisms of compound 102 enhancement of cancer chemotherapy.
We analyzed cell cycle patterns of U87MG and U373 cells 48 hours after exposure to TMZ or DOX alone and in combination with compound 102.

PP2A [1] = biological target: T1, PP2A (Homo sapiens, UniProt P67775); experiment: PP2A activity in U87 xenografts and normal brain after i.p. injection; assay type: in vivo, SCID mice; design: PP2A activity in U87 s.c. xenografts (blue) and in normal brain tissue (yellow) of SCID mice; from tissue; host or cells: U87 s.c. xenografts and normal brain tissue of SCID mice; conditions: single dose 1.5 mg/kg i.p.
Protocol: PP2A activity in U87 s.c. xenografts (blue) and in normal brain tissue (yellow) of SCID mice at different times after i.p. injection of 1.5 mg/kg compound 102 (one mouse per point; each lysate was measured in triplicate: mean and s.d.)
Recent work led to the discovery that treatment with the compound, compound 100, and several homologs inhibit the serine/threonine protein phosphatases PP2A (FIG. 1). Compound 102 inhibits PP2A (IC50=˜0.4 μM) more potently than PP1 (IC50=˜80 μM) (FIG. 2). Associated with their inhibition of PP2A, Compound 100 and homologs inhibit a variety of human cancer cell types growing in cell culture and growing in vivo as xenografts implanted subcutaneously in SCID mice (FIG. 3 and FIG. 4). […] Death of these cancer cells is associated with profound disruption of microtubular structures. Such patterns of disordered microtubules during mitosis have been noted after exposure of cancer cells to spindle toxins include such vincristine, vinblastine, taxol, taxotere, ionizing radiation, and DNA damaging agents including anthracyclines and the platinum based compounds. The morphologic appearance of cells displaying these characteristics has been called the mitotic catastrophe phenotype (Castedo et al 2004).
Target sequence in this assay (P67775 whole entry): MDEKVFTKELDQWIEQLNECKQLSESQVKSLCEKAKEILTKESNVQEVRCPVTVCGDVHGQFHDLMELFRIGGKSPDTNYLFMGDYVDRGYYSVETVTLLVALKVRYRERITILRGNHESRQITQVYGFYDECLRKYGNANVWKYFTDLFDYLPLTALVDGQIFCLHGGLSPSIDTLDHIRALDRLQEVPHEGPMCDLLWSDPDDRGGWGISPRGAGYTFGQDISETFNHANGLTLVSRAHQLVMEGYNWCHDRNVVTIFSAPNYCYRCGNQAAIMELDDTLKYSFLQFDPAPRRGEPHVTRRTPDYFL

PP2A [2] = biological target: T1, PP2A; experiment: PP2A activity in DAOY cells (immunoprecipitated PP2A/Akt-1 complexes, Malachite Green assay); assay type: cell-based; design: PP2A activity from the immunoprecipitated complexes was assayed; endogenous in cells; host or cells: DAOY cells; conditions: 0.15, 0.25, 0.3 μM, 1 hour
Protocol: Cultured DAOY cells were plated in […] flasks. When the cells were 80% confluent, the media was replaced with media containing either 0.15 μM Compound 102, 0.25 μM Compound 102, 0.3 μM Compound 102, or an equivalent volume of PBS vehicle. After 1 hour, the cells were washed three times in a 0.9% normal saline solution. T-PER solution was added to the cells, and cells were prepared for protein extraction. Lysates from each treatment group containing 300 μg of protein were applied to a spin column (Catch and Release v2.0 Reversible Immunoprecipitation System, Millipore, Billerica, Mass.) for immunoprecipitation of PP2A/Akt-1 kinase protein complexes using polyclonal anti-rabbit Akt-1 antibody (Cell Signaling Technology, Danvers, Mass.). PP2A activity from the immunoprecipitated complexes was assayed using a Malachite Green Phosphatase Assay specific for serine/threonine phosphatase activity (Ser/Thr Phosphatase Assay Kit 1, Millipore, Billerica, Mass.).
Target sequence in this assay (P67775 whole entry): as above
Target sequence in this assay (P30153 2-589 partner limits assumed): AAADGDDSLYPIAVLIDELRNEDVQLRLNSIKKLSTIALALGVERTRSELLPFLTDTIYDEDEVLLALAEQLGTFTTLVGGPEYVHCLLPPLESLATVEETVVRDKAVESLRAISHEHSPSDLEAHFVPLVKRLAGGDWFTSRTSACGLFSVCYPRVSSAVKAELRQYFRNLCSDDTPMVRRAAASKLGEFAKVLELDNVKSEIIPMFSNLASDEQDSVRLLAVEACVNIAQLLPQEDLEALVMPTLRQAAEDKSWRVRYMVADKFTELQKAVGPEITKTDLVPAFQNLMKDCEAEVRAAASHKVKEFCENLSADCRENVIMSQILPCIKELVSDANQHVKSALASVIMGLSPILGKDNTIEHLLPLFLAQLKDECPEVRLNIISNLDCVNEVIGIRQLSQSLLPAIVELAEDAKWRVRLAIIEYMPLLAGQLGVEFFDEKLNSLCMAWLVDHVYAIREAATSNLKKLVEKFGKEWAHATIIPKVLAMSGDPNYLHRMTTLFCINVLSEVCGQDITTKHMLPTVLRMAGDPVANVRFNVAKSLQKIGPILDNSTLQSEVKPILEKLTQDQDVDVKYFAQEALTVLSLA

U87MG xenografts = experiment: U87MG s.c. xenografts in SCID mice, compound 102 and TMZ; assay type: in vivo
Protocol: as §1
To determine the impact of altering DNA-damage defense mechanisms by inhibiting PP2A on the efficacy of cytotoxic chemotherapy, the effects of compound 102 combined with TMZ, a non-specific DNA-methylating drug, routinely used for the palliative treatment of GBM patients (Prados et al, 2008), were studied. SCID mice bearing s.c. xenografts of either the GBM line U87MG or the neuroblastoma line SH-SY5Y were treated with vehicle alone, compound 102 alone, TMZ alone, or both drugs at the same doses and schedules as when given alone.

[3] = test system: DAOY medulloblastoma cells; experiment: DAOY medulloblastoma s.c. xenografts in SCID mice; assay type: in vivo; conditions: treatment from day 6, by day 23
Protocol: DAOY medulloblastoma cells were implanted subcutaneously into the flanks of SCID mice. On day 6, mice were divided into 3 groups, one group receiving Compound 100, one group receiving Compound 102, and one group receiving vehicle alone. The subcutaneous tumor masses were measured on day 6, day 13, day 18, and on day 23 when all animals were sacrificed. […] In this model DAOY cells, when untreated, reached their maximum growth about 2 weeks after implantation with slow regression thereafterwards.

## CC(C)(C)OC(=O)N1CCN(C(=O)C2C(C(=O)O)[C@H]3CC[C@@H]2O3)CC1 (some centres unmarked) [Compound 102]
U373 cells
  molecular changes in pAkt-1, p53, and MDM2 compared with U87MG: same molecular changes
NB xenografts
  cells with pyknotic nuclei: 50 % of cells
U87MG cells; compound 102 5 uM, TMZ 25 uM, doxorubicin 2.0 uM
  G1 phase cells: decreased
U87MG cells; same concentrations
  G2/M phase cells: prominently increased
  S phase cells: modestly increased
PP2A [1]
  PP2A activity in normal brain tissue: inhibits PP2A activity
  PP2A activity in s.c. U87 MG xenografts: inhibits PP2A activity
PP2A [2]
  PP2A activity in DAOY cell line: Inhibition
U87MG xenografts; compound 102 1.5 mg/kg i.p. days 1-3, 5-7, 9-11, TMZ 80 mg/kg days 4, 8, 12
  U87MG xenograft growth/regression: minimally delayed growth; also recorded: slowed growth
U87MG xenografts; same doses and schedules
  time of sacrifice (xenografts reached 1800 mm^3): 4-5 week
[3]
  DAOY subcutaneous tumor mass: marked regression
